Experimental data reported in ChEMBL document CHEMBL1201862, “PubChem BioAssay data set” (2004).
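The compound was tested at five concentrations on cells cultured in 96-well plates, with a 48-hour exposure period. Abbreviation: GI50, concentration required for 50% inhibition of growth.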 The source made the active and inactive calls. Cut-off read from the data, not from the text of the source: active = GI50 up to about 1.1 µM and inactive = higher.

Columns and labels:
Test in all cases: NCI-60 cell line screen, 48 h
786-0 = test system: 786-0
A498 = test system: A498
A549 = test system: A549
CCRF-CEM = test system: CCRF-CEM
COLO 205 = test system: COLO 205
DLD-1 = test system: DLD-1
DMS-114 = test system: DMS-114
DMS-273 = test system: DMS-273
EKVX = test system: EKVX
HCC 2998 = test system: HCC 2998
HCT-116 = test system: HCT-116
HCT-15 = test system: HCT-15
HL-60 = test system: HL-60
HOP-18 = test system: HOP-18
HOP-62 = test system: HOP-62
HOP-92 = test system: HOP-92
HT-29 = test system: HT-29
IGROV-1 = test system: IGROV-1
K562 = test system: K562
KM-20L2 = test system: KM-20L2
KM12 = test system: KM12
LOX IMVI = test system: LOX IMVI
LXFL 529 = test system: LXFL 529
M14 = test system: M14
M19-MEL = test system: M19-MEL
MOLT-4 = test system: MOLT-4
Malme-3M = test system: Malme-3M
NCI-H226 = test system: NCI-H226
NCI-H23 = test system: NCI-H23
NCI-H460 = test system: NCI-H460
OVCAR-3 = test system: OVCAR-3
OVCAR-4 = test system: OVCAR-4
OVCAR-5 = test system: OVCAR-5
OVCAR-8 = test system: OVCAR-8
RPMI-8226 = test system: RPMI-8226
RXF 393 = test system: RXF 393
SF-268 = test system: SF-268
SF-295 = test system: SF-295
SF-539 = test system: SF-539
SK-MEL-28 = test system: SK-MEL-28
SK-MEL-2 = test system: SK-MEL-2
SK-MEL-5 = test system: SK-MEL-5
SK-OV-3 = test system: SK-OV-3
SN12C = test system: SN12C
SNB-19 = test system: SNB-19
SNB-75 = test system: SNB-75
SNB-78 = test system: SNB-78
SR = test system: SR
SW-620 = test system: SW-620
TK-10 = test system: TK-10
U-251 = test system: U-251
UACC-257 = test system: UACC-257
UACC-62 = test system: UACC-62
UO-31 = test system: UO-31
XF498 = test system: XF498
ACHN = test system: ACHN
BT-549 = test system: BT-549
CAKI-1 = test system: CAKI-1
DU-145 = test system: DU-145
Hs-578T = test system: Hs-578T
MCF7 = test system: MCF7
MDA-MB-231 = test system: MDA-MB-231
MDA-MB-435 = test system: MDA-MB-435
MDA-N = test system: MDA-N
NCI-H522 = test system: NCI-H522
NCI/ADR-RES = test system: NCI/ADR-RES
PC-3 = test system: PC-3
T47D = test system: T47D

Measured: GI50

Nc1nc(Cl)cc(NCC(O)CO)n1 (stereo not drawn)
> 100 µM: HCT-15
inactive: 786-0 > 100 µM | A498 > 100 µM | A549 > 100 µM | CCRF-CEM > 100 µM | COLO 205 > 100 µM | DLD-1 > 100 µM | DMS-114 > 100 µM | DMS-273 > 100 µM | EKVX > 100 µM | HCC 2998 > 100 µM | HCT-116 > 100 µM | HL-60 > 100 µM | HOP-18 > 100 µM | HOP-62 > 100 µM | HOP-92 > 100 µM | HT-29 > 100 µM | IGROV-1 > 100 µM | K562 > 100 µM | KM-20L2 > 100 µM | KM12 > 100 µM | LOX IMVI > 100 µM | LXFL 529 > 100 µM | M14 > 100 µM | M19-MEL > 100 µM | MOLT-4 > 100 µM | Malme-3M > 100 µM | NCI-H226 > 100 µM | NCI-H23 > 100 µM | NCI-H460 > 100 µM | OVCAR-3 > 100 µM | OVCAR-4 > 100 µM | OVCAR-5 > 100 µM | OVCAR-8 > 100 µM | RPMI-8226 > 100 µM | RXF 393 > 100 µM | SF-268 > 100 µM | SF-295 > 100 µM | SF-539 > 100 µM | SK-MEL-28 > 100 µM | SK-MEL-2 > 100 µM | SK-MEL-5 > 100 µM | SK-OV-3 > 100 µM | SN12C > 100 µM | SNB-19 > 100 µM | SNB-75 > 100 µM | SNB-78 > 100 µM | SR > 100 µM | SW-620 > 100 µM | TK-10 > 100 µM | U-251 > 100 µM | UACC-257 > 100 µM | UACC-62 > 100 µM | UO-31 > 100 µM | XF498 > 100 µM

CC(SC1=CC(=O)c2c(Cl)ccc(O)c2C1=O)C(=O)O (stereo not drawn)
17.1 µM: HCT-15
inactive: A498 67.1 µM | A549 22.4 µM | CCRF-CEM 5.25 µM | COLO 205 21.3 µM | DLD-1 17.3 µM | DMS-114 18.2 µM | DMS-273 18.1 µM | EKVX 21.3 µM | HCC 2998 21.3 µM | HCT-116 17.8 µM | HL-60 2.79 µM | HOP-18 27.5 µM | HOP-92 21.6 µM | HT-29 > 10 µM | IGROV-1 17.3 µM | K562 18.7 µM | KM-20L2 74.6 µM | KM12 18 µM | LOX IMVI 10.1 µM | LXFL 529 16 µM | MOLT-4 18.5 µM | Malme-3M 19.7 µM | NCI-H226 43.3 µM | NCI-H23 > 10 µM | NCI-H460 26.6 µM | OVCAR-8 18.2 µM | RPMI-8226 19.8 µM | RXF 393 > 10 µM | SF-268 20.2 µM | SF-295 19 µM | SF-539 18.3 µM | SK-MEL-28 18.5 µM | SK-MEL-2 17.5 µM | SK-MEL-5 14.3 µM | SN12C 16.7 µM | SNB-75 16.9 µM | SNB-78 12.6 µM | SR 6.56 µM | SW-620 19.4 µM | TK-10 20.7 µM | U-251 17.7 µM | UACC-257 15.8 µM | XF498 19.9 µM

N[C@H](C(=O)O)[C@H]1ON=C(Cl)[C@@H]1O
inactive: 786-0 6.61 µM | A549 1.56 µM | ACHN 10.7 µM | BT-549 3.97 µM | CAKI-1 1.77 µM | DMS-114 6.61 µM | DMS-273 1.16 µM | DU-145 27.4 µM | EKVX 5.11 µM | HCC 2998 1.15 µM | HCT-116 2.36 µM | HL-60 3.46 µM | HOP-18 > 360 µM | HOP-62 2.13 µM | HOP-92 27.4 µM | Hs-578T 8.65 µM | IGROV-1 2.84 µM | K562 1.63 µM | LOX IMVI 8.71 µM | M14 6.03 µM | M19-MEL 1.87 µM | MCF7 2.6 µM | MDA-MB-231 12.2 µM | MDA-MB-435 3.56 µM | MDA-N 2.95 µM | MOLT-4 1.38 µM | Malme-3M 24.1 µM | NCI-H226 45.1 µM | NCI-H23 3.52 µM | NCI-H460 2.76 µM | NCI/ADR-RES 6.49 µM | OVCAR-3 18.5 µM | OVCAR-4 29.3 µM | OVCAR-5 5.6 µM | OVCAR-8 2.95 µM | PC-3 7.03 µM | RPMI-8226 2.43 µM | RXF 393 58.3 µM | SF-268 1.5 µM | SF-295 5.97 µM | SF-539 1.28 µM | SK-MEL-28 3.24 µM | SK-MEL-2 56.1 µM | SK-OV-3 14.3 µM | SN12C 4.63 µM | SNB-19 5.58 µM | SNB-75 26.2 µM | SNB-78 28.1 µM | SR 1.73 µM | SW-620 2.16 µM | T47D 33.6 µM | TK-10 > 28.5 µM | U-251 3.3 µM | UACC-257 14.7 µM | UACC-62 3.3 µM | UO-31 18.3 µM | XF498 59 µM
1.21 µM: HCT-15
active: CCRF-CEM 0.966 µM | COLO 205 0.59 µM | DLD-1 1.09 µM | HT-29 0.286 µM | KM-20L2 0.343 µM | KM12 0.612 µM | NCI-H522 0.942 µM | SK-MEL-5 0.929 µM

CCOC(=O)C(CNc1ccc(O)cc1)NC(=O)c1ccccc1 (stereo not drawn)
inactive: 786-0 64.3 µM | A498 > 100 µM | A549 > 100 µM | ACHN 54.8 µM | CAKI-1 > 100 µM | CCRF-CEM 32.3 µM | COLO 205 > 100 µM | DLD-1 > 100 µM | DMS-114 > 79.8 µM | DMS-273 65 µM | EKVX > 100 µM | HCC 2998 > 100 µM | HCT-116 > 100 µM | HL-60 25.6 µM | HOP-18 > 100 µM | HOP-62 > 100 µM | HOP-92 > 100 µM | HT-29 > 100 µM | IGROV-1 > 100 µM | K562 37.8 µM | KM-20L2 > 100 µM | KM12 > 100 µM | LOX IMVI 99.8 µM | LXFL 529 77.3 µM | M14 > 66.4 µM | M19-MEL 47 µM | MOLT-4 50.8 µM | Malme-3M > 100 µM | NCI-H226 > 100 µM | NCI-H23 > 100 µM | NCI-H460 > 100 µM | NCI-H522 75.3 µM | OVCAR-3 > 100 µM | OVCAR-4 > 66.2 µM | OVCAR-5 > 100 µM | OVCAR-8 > 100 µM | RPMI-8226 53.6 µM | RXF 393 > 100 µM | SF-268 > 100 µM | SF-295 > 100 µM | SF-539 > 100 µM | SK-MEL-28 > 100 µM | SK-MEL-2 > 100 µM | SK-MEL-5 > 100 µM | SK-OV-3 > 100 µM | SN12C > 100 µM | SNB-19 > 100 µM | SNB-75 > 100 µM | SNB-78 > 100 µM | SR > 61 µM | SW-620 > 100 µM | TK-10 > 100 µM | U-251 > 100 µM | UACC-257 > 100 µM | UACC-62 > 53.7 µM | UO-31 > 100 µM | XF498 > 100 µM
> 100 µM: HCT-15
